Measured values taken from article PMC7532663, “Pharmacological inhibition of mTORC1 increases CCKBR-specific tumor uptake of radiolabeled minigastrin analogue [^177Lu]Lu-PP-F11N” (Theranostics, 2020).

Tested on: A431/CCKBR cells
Assay: CellTiter 96 AQueous (MTS) proliferation assay
Assay type: cell-based, human
Conditions: not given

Row | Structure (SMILES) | Proliferation [A570]
1 | COCc1cc(O)c(O)c(O)c1-c1c(COC)cc(O)c(O)c1O [2,2',3,3',4,4'-Hexahydroxy-1,1'-biphenyl-6,6'-dimethanol dimethyl ether] | 0.98
2 | OC[C@H]1O[C@@H](n2cnc3cc(Cl)c(Cl)cc32)[C@H](O)[C@@H]1O [5,6-dichloro-1-β-D-ribofuranosylben zimidazole] | 0.99
3 | CCCCCCCCCCCCC/C=C/[C@@H](O)[C@@H](N)CO [D-erythro-Sphingosine] | 0.96
4 | C/C(O)=C(\C#N)C(=O)Nc1cc(Br)ccc1Br [LFM-A13] | 0.93
5 | O.O.O=c1c(O)c(-c2ccc(O)c(O)c2)oc2cc(O)cc(O)c12 [Quercetin·2H2O] | 1.03
6 | CC[C@H](CO)Nc1nc(NCc2ccccc2)c2ncn(C(C)C)c2n1 [Roscovi tine] | 0.91
7 | C[S+]([O-])c1ccc(-c2nc(-c3ccncc3)c(-c3ccc(F)cc3)[nH]2)cc1 (stereo not drawn) [SB-203580] | 0.95

Same assay, conditions: 10 μM kinase inhibitor; MTS absorbance at 570 nm, reference 650 nm; mean of triplicate

Row | Structure (SMILES) | Proliferation [A570]
8 | CCCCCCCCCCCCCCCC(=O)OC(CC(=O)[O-])C[N+](C)(C)C (racemic) [Palmitoyl-DL-carnitine] | 0.91
9 | Nc1ncc2[nH]cnc2n1 [2-Am inopurine] | 0.96
10 | O=C(O)c1cc(NCc2cc(O)ccc2O)ccc1O [2-Hydroxy-5-(2,5-dihydroxybenzylamino)benzoi c acid] | 1.01
11 | Nc1ncnc2c1c(I)cn2[C@@H]1O[C@H](CO)[C@@H](O)[C@H]1O [5-Iodotubericidin] | 1.15
12 | N#CC(C#N)=Cc1ccc([N+](=O)[O-])c(O)c1 [AG-1 26] | 1.01
13 | N#CC(=Cc1ccc2[nH]ccc2c1)C(N)=C(C#N)C#N [AG-3 70] | 0.97
14 | N#C/C(=C\c1ccc(O)c(O)c1)C(=O)NCc1ccccc1 [AG-4 90] | 1.03
15 | N#C/C(=C\c1ccc(O)c(O)c1)C(=O)Nc1ccccc1 [AG-4 94] | 0.97
16 | COc1cc(/C=C(\C#N)C(N)=O)cc(CSc2nc3ccccc3s2)c1O [AG-8 25] | 0.80
17 | CC(C)(C)c1cc(/C=C(\C#N)C(N)=S)cc(C(C)(C)C)c1O [AG-8 79] | 0.80
18 | COc1cc2ncc(-c3ccccc3)nc2cc1OC [AG-1296] | 0.94
19 | O=c1cc(-c2ccc(O)cc2)oc2cc(O)cc(O)c12 [Apigenin] | 0.90
20 | Cc1ccc(S(=O)(=O)/C=C/C#N)cc1 [BAY 11-7082] | 1.14
21 | CC(C)c1cnc(NC(=O)Cc2ccccc2)s1 [BML-259] | 1.09
22 | O=c1c(-c2ccc(O)cc2)coc2cc(O)ccc12 [Daidzein] | 0.92
23 | COC(=O)/C=C/c1cc(O)ccc1O [Erbstatin analog] | 1.12
24 | CN(C)CCCn1cc(C2=C(c3c[nH]c4ccccc34)C(=O)NC2=O)c2ccccc21 [GF 109203X] | 0.95
25 | O=C1Nc2ccc(I)cc2/C1=C/c1cc(Br)c(O)c(Br)c1 [GW 5074] | 0.93
26 | O=c1c(-c2ccc(O)cc2)coc2cc(O)cc(O)c12 [Genistein] | 0.95
27 | CC1CNCCN1S(=O)(=O)c1cccc2cnccc12.Cl.Cl (stereo not drawn) [H-7·2HCl] | 0.98
28 | CNCCNS(=O)(=O)c1cccc2cnccc12 [H-8] | 0.99
29 | Cl.NCCNS(=O)(=O)c1cccc2cnccc12 [H-9·HCl] | 1.03
30 | Cl.Cl.O=S(=O)(NCCNC/C=C/c1ccc(Br)cc1)c1cccc2cnccc12 [H-89·2HCl] | 0.97
31 | Cl.NC(N)=NCCNS(=O)(=O)c1cccc2cnccc12 [HA-1004·HCl] | 1.05
32 | Cl.Cl.O=S(=O)(c1cccc2cnccc12)N1CCCNCC1 [HA-1077·2HCl] | 0.99
33 | O=P(O)(O)C(O)c1ccc2ccccc2c1 (stereo not drawn) [Hydroxy-2-naphthalenylmethylphosp honic acid] | 1.00
34 | Cc1cc(O)c2c(=O)c3c(O)cc(O)c4c5c(O)cc(O)c6c(=O)c7c(O)cc(C)c8c1c2c(c34)c(c78)c65 [Hypericin] | 0.93

Row | Structure (SMILES) | Proliferation [A570]
35 | O=C1Nc2ccccc2/C1=C1/Nc2ccccc2/C1=N\O [Indirubin-3'-monooxime] | 0.87
36 | O=C1Nc2ccccc2/C1=C1/Nc2ccccc2C1=O [Indirubin] | 1.09
37 | Cn1cnc2nc(NCCO)nc(NCc3ccccc3)c21 [Iso-olomoucine] | 0.96
38 | CN([C@@H](Cc1ccc(OS(=O)(=O)c2cccc3cnccc23)cc1)C(=O)N1CCN(c2ccccc2)CC1)S(=O)(=O)c1cccc2cnccc12 [KN-62] | 0.82
39 | COc1ccc(S(=O)(=O)N(CCO)c2ccccc2CN(C)C/C=C/c2ccc(Cl)cc2)cc1 [KN-93] | 0.92
40 | O=C1Cc2c([nH]c3ccc(Br)cc23)-c2ccccc2N1 [Kenpaullone] | 0.99
41 | O=c1cc(N2CCOCC2)oc2c(-c3ccccc3)cccc12 [LY 294002] | 0.92
42 | O=C(O)c1cc(N(Cc2ccccc2O)Cc2cc(O)ccc2O)ccc1O [Lavendustin A] | 1.15
43 | Cl.O=S(=O)(c1cccc2c(I)cccc12)N1CCCNCC1 [ML-7·HCl] | 0.95
44 | Cl.O=S(=O)(c1cccc2c(Cl)cccc12)N1CCCNCC1 [ML-9·HCl] | 0.94
45 | CC(C)n1cnc2c(NCc3ccccc3)nc(NCCO)nc21 [N9-isopropyl-olomoucine] | 0.93
46 | Cn1cnc2c(NCc3ccccc3)nc(NCCO)nc21 [Olomoucine] | 0.98
47 | COc1cccc(-c2cc(=O)c3ccccc3o2)c1N [PD-98059] | 1.01
48 | CO[C@@H]1[C@H](N(C)C(=O)c2ccccc2)C[C@H]2O[C@]1(C)n1c3ccccc3c3c4c(c5c6ccccc6n2c5c31)C(=O)NC4 [PKC-4 12] | 0.78
49 | Cc1ccc(-c2nn(C(C)(C)C)c3ncnc(N)c23)cc1 [PP1] | 0.80
50 | CC(C)(C)n1nc(-c2ccc(Cl)cc2)c2c(N)ncnc21 [PP2] | 0.86
51 | Oc1cc(O)cc(/C=C/c2ccc(O)c(O)c2)c1 [Piceatannol] | 1.02
52 | CS(=O)(=O)O.Cn1cc(C2=C(c3cn(CCCSC(=N)N)c4ccccc34)C(=O)NC2=O)c2ccccc21 [Ro 31-8220 mesylate] | 0.51
53 | CC(=O)c1c(O)c(C)c(O)c(Cc2c(O)c3c(c(C(=O)/C=C/c4ccccc4)c2O)OC(C)(C)C=C3)c1O [Rottle rin] | 0.64
54 | Oc1ccc(-c2nc(-c3ccncc3)c(-c3ccc(F)cc3)[nH]2)cc1 [SB-202190] | 1.02
55 | Oc1c2ccccc2c2c3c(cccc13)N=N2 [SP 600125] | 0.77
56 | CC(C)c1cc(/C=C(\C#N)C(=O)NCCCc2ccccc2)cc(C(C)C)c1O [SU1498] | 0.98
57 | CN(C)c1ccc(/C=C2\C(=O)Nc3ccccc32)cc1 [SU 4312] | 0.97
58 | CN[C@@H]1C[C@H]2O[C@@](C)([C@@H]1OC)n1c3ccccc3c3c4c(c5c6ccccc6n2c5c31)C(=O)NC4 [Staurosporine] | 0.51
59 | CC(C)(C)c1cc(C=C(C#N)C#N)cc(C(C)(C)C)c1O [TYRPHOSTIN 9] | 0.62
60 | N#CC(C#N)=Cc1ccc(O)c(O)c1 [TYRPHOSTIN 23] | 1.07
